Data taken from article PMC5851869 (Bioorganic & medicinal chemistry letters, 2018).

Key:
pa-HemO = pa-HemO (Pseudomonas aeruginosa, UniProt O69002); assay: fluorescence quenching assay; assay type: binding; conditions: for fold improvement in potency/affinity compared to compound 2: ratio of KD values relative to inhibitor 2
P. aeruginosa = assay type: cell-based, Pseudomonas aeruginosa; conditions: statement covers both MIC50 and biofilm formation assays

Compound: O=C1/C(=C/c2ccccn2)SC(=S)N1CCc1nnn[nH]1 [compound 3]
- fold improvement in potency/affinity compared to compound 2 (pa-HemO): ~2 fold

Compound: COc1cccc(/C=C2\SC(=S)N(CCC(=O)O)C2=O)c1 [compound 8]
- fold improvement in potency/affinity compared to compound 2 (pa-HemO): ~ 2 fold

Compound: COc1ccc(/C=C2\SC(=S)N(CCC(=O)O)C2=O)cc1 [compound 9]
- fold improvement in potency/affinity compared to compound 2 (pa-HemO): ~ 2 fold

Compound: O=C(O)CCN1C(=O)/C(=C/c2ccc(Cl)cc2)SC1=S [compound 11]
- fold improvement in potency/affinity compared to compound 2 (pa-HemO): > 3 fold

Compound: CC(C)c1ccc(/C=C2\SC(=S)N(CCC(=O)O)C2=O)cc1 [compound 13]
- fold improvement in potency/affinity compared to compound 2 (pa-HemO): 5 fold

Compound: O=C(O)CCN1C(=O)/C(=C\c2ccc(-c3ccccc3)cc2)SC1=S [compound 18]
- anti-bacterial effect (in words) (P. aeruginosa): poor anti-bacterial effects

Compound: O=C(O)CCN1C(=O)/C(=C/c2cccc(Nc3ccccc3)c2)SC1=S [compound 21]
- Kd (pa-HemO): ~1000 nM
- anti-bacterial effect (in words) (P. aeruginosa): poor anti-bacterial effects

Compound: O=C(O)CCN1C(=O)/C(=C\c2ccc(-c3cccc(O)c3)o2)SC1=S [compound 27]
- Kd (pa-HemO): ~1000 nM
- anti-bacterial effect (in words) (P. aeruginosa): poor anti-bacterial effects

Compound: NCCN1C(=O)/C(=C/c2ccc(-c3ccccc3)cc2)SC1=S [compound 30]
- anti-bacterial effect (in words) (P. aeruginosa): did not have significant antibacterial activity

Compound: CN(C)CCN1C(=O)/C(=C\c2ccc(-c3ccccc3)cc2)SC1=S [compound 31]
- anti-bacterial effect (in words) (P. aeruginosa): did not have significant antibacterial activity
